Laboratory results: ChEMBL document CHEMBL5034031, “Discovery of Next-Generation Tropomyosin Receptor Kinase Inhibitors for Combating Multiple Resistance Associated with Protein Mutation” (J Med Chem, 2021)

Experiments:
[1] = target: Serine/threonine-protein kinase PLK1 (Homo sapiens) (UniProt P53350); assay: Inhibition of PLK1 (unknown origin) at 1 uM relative to control
[2] = Clearance in Beagle dog at 5 mg/kg, ig measured upto 24 hrs by LC-MS/MS analysis; format: ADME, organism-based, Canis lupus familiaris; conditions: in vivo, po
[3] = target: Platelet-derived growth factor receptor alpha (Homo sapiens) (UniProt P16234); assay: Inhibition of PDGFRalpha (unknown origin) at 1 uM relative to control
[4] = tested on: BaF3; format: functional, cell-based; conditions: Mus musculus, BaF3, 72 h
[5] = tested on: BaF3; assay: Antitumor activity against mouse BAF3 cells harboring ETV6 fused TRKC G623R mutant xenografted in BALB/c nude mouse assessed as tumor growth inhibition at 30 mg/kg, po administered twice daily for 12 to […] consecutive days; format: functional; conditions: time 12-14 day, read-out: TGI
[6] = target: Tyrosine-protein kinase JAK1 (Homo sapiens) (UniProt P23458); assay: Inhibition of JAK1 (unknown origin) at 1 uM relative to control
[7] = Toxicity in BALB/c mouse xenografted with mouse BAF3 cells harboring TMP3 fused wild type TRKA assessed as mortality at 15 mg/kg, po administered twice daily for 12 to […] consecutive days; format: organism-based; conditions: in vivo, time 12-14 day
[8] = tested on: BaF3; assay: animal or person; format: functional; conditions: Mus musculus, BaF3, po; dose 15 mg/kg; time 12-14 day; read-out: TGI
[9] = Clearance in Beagle dog at 1 mg/kg, iv measured upto 24 hrs by LC-MS/MS analysis; format: ADME, organism-based, Canis lupus familiaris; conditions: in vivo
[10] = target: Misshapen-like kinase 1 (Homo sapiens) (UniProt Q8N4C8); assay: Inhibition of MINK1 (unknown origin) at 1 uM relative to control
[11] = Toxicity in BALB/c nude mouse xenografted with mouse BAF3 cells harboring TMP3 fused TRKA G595R mutant assessed as mortality at 30 mg/kg, po administered twice daily for 12 to […] consecutive days; format: organism-based; conditions: in vivo, time 12-14 day
[12] = tested on: BaF3; assay: Antitumor activity against mouse BAF3 cells harboring TMP3 fused wild type TRKA xenografted in BALB/c nude mouse assessed as tumor growth inhibition at 5 mg/kg, po administered twice daily for 12 to […] consecutive days; format: functional; conditions: time 12-14 day, read-out: TGI
[13] = target: Cytoplasmic tyrosine-protein kinase BMX (Homo sapiens) (UniProt P51813); assay: Inhibition of BMX (unknown origin) at 1 uM relative to control
[14] = target: Mitogen-activated protein kinase 3 (Homo sapiens) (UniProt P27361); assay: Inhibition of ERK1 (unknown origin) at 1 uM relative to control
[15] = Half life in Beagle dog at 5 mg/kg, ig measured upto 24 hrs by LC-MS/MS analysis; format: ADME, organism-based, Canis lupus familiaris; conditions: in vivo, po
[16] = Toxicity in BALB/c mouse xenografted with mouse BAF3 cells harboring TMP3 fused wild type TRKA assessed as body weight loss at 15 mg/kg, po administered twice daily for 12 to 14 consecutive days; format: organism-based; conditions: in vivo, time 12-14 day
[17] = target: BDNF/NT-3 growth factors receptor (Homo sapiens) (UniProt Q16620); assay: Inhibition of TRKB (unknown origin) at 1 uM relative to control
Chain of BDNF/NT-3 growth factors receptor (Homo sapiens) (Q16620 32-822 limits assumed): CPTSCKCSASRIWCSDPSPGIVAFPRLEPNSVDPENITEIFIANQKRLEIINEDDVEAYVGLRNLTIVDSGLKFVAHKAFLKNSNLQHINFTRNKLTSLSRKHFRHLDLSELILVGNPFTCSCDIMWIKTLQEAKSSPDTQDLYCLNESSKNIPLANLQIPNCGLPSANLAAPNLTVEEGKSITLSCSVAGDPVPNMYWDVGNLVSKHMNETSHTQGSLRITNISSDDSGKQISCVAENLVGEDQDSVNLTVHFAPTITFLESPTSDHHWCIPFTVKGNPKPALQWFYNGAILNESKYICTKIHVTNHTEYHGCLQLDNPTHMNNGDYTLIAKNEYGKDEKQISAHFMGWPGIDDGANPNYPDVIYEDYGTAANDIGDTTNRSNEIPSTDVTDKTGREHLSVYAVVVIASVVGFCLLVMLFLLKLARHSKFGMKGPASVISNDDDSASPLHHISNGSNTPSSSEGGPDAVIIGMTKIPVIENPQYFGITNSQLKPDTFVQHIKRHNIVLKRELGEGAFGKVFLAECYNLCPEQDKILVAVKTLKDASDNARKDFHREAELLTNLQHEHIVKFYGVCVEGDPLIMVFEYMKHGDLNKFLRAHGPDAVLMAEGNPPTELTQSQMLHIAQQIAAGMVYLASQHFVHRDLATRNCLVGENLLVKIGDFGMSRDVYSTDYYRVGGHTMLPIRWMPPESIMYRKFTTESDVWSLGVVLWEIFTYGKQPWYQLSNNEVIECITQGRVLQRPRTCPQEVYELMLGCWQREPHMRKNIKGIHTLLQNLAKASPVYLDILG

[18] = AUC(0 to infinity) in Sprague-Dawley rat at 1 mg/kg, iv measured upto 24 hrs by LC-MS/MS analysis; format: ADME, organism-based; design: route intravenous, dose 1 mg/kg, time <=24; conditions: in vivo
[19] = Tmax in Beagle dog at 5 mg/kg, ig measured upto 24 hrs by LC-MS/MS analysis; format: ADME, organism-based, Canis lupus familiaris; conditions: in vivo, po
[20] = target: NT-3 growth factor receptor (Homo sapiens) (UniProt Q16288); assay: Inhibition of TRKC (unknown origin) at 1 uM relative to control
[21] = Volume of distribution in Beagle dog at 5 mg/kg, ig measured upto 24 hrs by LC-MS/MS analysis; format: ADME, organism-based, Canis lupus familiaris; conditions: in vivo, po
[22] = Cmax in Beagle dog at 1 mg/kg, iv measured upto 24 hrs by LC-MS/MS analysis; format: ADME, organism-based, Canis lupus familiaris; design: route intravenous, dose 1 mg/kg, time <=24; conditions: in vivo
[23] = target: Proto-oncogene tyrosine-protein kinase ROS (Homo sapiens) (UniProt P08922); assay: Inhibition of ROS1 (unknown origin) at 1 uM relative to control
[24] = tested on: BaF3; format: functional, cell-based; conditions: Mus musculus, BaF3, 72 h; remark: listed apart in the source
[25] = Clearance in Sprague-Dawley rat at 1 mg/kg, iv measured upto 24 hrs by LC-MS/MS analysis; format: ADME, organism-based; conditions: in vivo
[26] = target: Calcium/calmodulin-dependent protein kinase type II subunit beta (Homo sapiens) (UniProt Q13554); assay: Inhibition of CAMK2 (unknown origin) at 1 uM relative to control
[27] = target: Voltage-gated inwardly rectifying potassium channel KCNH2 (Homo sapiens, UniProt Q12809); assay: Inhibition of hERG
[28] = Half life in Beagle dog at 1 mg/kg, iv measured upto 24 hrs by LC-MS/MS analysis; format: ADME, organism-based, Canis lupus familiaris; conditions: in vivo
[29] = target: Tyrosine-protein kinase ZAP-70 (Homo sapiens) (UniProt P43403); assay: Inhibition of ZAP70 (unknown origin) at 1 uM relative to control
[30] = target: Mast/stem cell growth factor receptor Kit (Homo sapiens) (UniProt P10721); assay: Inhibition of KIT (unknown origin) at 1 uM relative to control
[31] = target: Vascular endothelial growth factor receptor 2 (Homo sapiens) (UniProt P35968); assay: Inhibition of KDR (unknown origin) at 1 uM relative to control
[32] = target: Tyrosine-protein kinase ABL2 (Homo sapiens) (UniProt P42684); assay: Inhibition of ABL2 (unknown origin) at 1 uM relative to control
[33] = target: Serine/threonine-protein kinase pim-1 (Homo sapiens) (UniProt P11309); assay: Inhibition of PIM1 (unknown origin) at 1 uM relative to control
Chain of Serine/threonine-protein kinase pim-1 (Homo sapiens) (P11309 whole entry, looked up): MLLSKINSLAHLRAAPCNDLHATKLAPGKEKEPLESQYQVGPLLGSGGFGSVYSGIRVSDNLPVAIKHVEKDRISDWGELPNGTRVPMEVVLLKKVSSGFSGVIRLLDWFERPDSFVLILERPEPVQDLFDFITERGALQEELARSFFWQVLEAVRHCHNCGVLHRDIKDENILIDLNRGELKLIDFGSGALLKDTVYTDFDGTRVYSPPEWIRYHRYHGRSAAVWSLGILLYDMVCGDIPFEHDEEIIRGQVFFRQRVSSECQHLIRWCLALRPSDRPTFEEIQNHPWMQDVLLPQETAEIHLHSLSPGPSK

[34] = Metabolic stability in human liver microsomes assessed as half life at 1 uM measured upto 90 mins in presence of NADPH regenerating system by LC-MS/MS analysis; format: ADME, Microsome
[35] = target: High affinity nerve growth factor receptor (Homo sapiens, UniProt P04629)
[36] = target: Epidermal growth factor receptor (Homo sapiens) (UniProt P00533); assay: Inhibition of EGFR (unknown origin) at 1 uM relative to control
Chain of Epidermal growth factor receptor (Homo sapiens) (P00533 whole entry): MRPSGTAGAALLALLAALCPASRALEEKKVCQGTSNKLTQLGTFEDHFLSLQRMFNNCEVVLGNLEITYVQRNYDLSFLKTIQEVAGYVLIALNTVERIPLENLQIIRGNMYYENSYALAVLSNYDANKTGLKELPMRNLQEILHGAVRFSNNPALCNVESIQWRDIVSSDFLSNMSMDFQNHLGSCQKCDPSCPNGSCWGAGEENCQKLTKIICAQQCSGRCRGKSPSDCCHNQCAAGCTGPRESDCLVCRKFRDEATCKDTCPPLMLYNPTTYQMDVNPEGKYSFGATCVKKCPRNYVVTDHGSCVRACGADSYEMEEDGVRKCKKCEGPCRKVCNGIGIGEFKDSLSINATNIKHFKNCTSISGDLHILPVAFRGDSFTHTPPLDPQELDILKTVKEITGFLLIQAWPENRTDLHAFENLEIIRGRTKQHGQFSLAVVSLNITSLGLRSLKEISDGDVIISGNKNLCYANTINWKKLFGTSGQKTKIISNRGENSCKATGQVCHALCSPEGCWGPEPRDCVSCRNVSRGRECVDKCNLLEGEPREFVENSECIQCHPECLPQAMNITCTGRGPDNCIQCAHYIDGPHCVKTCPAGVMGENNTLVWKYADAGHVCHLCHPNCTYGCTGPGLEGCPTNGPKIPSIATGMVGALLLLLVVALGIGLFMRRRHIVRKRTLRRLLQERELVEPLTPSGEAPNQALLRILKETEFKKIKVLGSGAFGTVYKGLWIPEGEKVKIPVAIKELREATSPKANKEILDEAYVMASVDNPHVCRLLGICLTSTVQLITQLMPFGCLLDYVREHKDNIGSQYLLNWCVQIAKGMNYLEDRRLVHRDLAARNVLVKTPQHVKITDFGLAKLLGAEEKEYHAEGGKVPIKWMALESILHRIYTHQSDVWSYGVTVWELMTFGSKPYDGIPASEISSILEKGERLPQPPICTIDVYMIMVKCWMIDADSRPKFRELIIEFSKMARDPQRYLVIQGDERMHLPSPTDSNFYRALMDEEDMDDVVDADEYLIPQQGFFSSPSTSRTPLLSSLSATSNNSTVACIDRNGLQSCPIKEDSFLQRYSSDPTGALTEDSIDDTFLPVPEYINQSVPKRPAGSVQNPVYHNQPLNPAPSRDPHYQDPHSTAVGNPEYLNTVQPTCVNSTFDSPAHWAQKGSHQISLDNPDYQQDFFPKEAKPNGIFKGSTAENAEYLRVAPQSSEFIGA

[37] = target: Serine/threonine-protein kinase mTOR (Homo sapiens) (UniProt P42345); assay: Inhibition of mTOR (unknown origin) at 1 uM relative to control
[38] = target: hERG (KCNH2) (Homo sapiens, UniProt Q12809); assay: Inhibition of hERG at 10 uM relative to control
Chain of hERG (KCNH2) (Q12809 whole entry): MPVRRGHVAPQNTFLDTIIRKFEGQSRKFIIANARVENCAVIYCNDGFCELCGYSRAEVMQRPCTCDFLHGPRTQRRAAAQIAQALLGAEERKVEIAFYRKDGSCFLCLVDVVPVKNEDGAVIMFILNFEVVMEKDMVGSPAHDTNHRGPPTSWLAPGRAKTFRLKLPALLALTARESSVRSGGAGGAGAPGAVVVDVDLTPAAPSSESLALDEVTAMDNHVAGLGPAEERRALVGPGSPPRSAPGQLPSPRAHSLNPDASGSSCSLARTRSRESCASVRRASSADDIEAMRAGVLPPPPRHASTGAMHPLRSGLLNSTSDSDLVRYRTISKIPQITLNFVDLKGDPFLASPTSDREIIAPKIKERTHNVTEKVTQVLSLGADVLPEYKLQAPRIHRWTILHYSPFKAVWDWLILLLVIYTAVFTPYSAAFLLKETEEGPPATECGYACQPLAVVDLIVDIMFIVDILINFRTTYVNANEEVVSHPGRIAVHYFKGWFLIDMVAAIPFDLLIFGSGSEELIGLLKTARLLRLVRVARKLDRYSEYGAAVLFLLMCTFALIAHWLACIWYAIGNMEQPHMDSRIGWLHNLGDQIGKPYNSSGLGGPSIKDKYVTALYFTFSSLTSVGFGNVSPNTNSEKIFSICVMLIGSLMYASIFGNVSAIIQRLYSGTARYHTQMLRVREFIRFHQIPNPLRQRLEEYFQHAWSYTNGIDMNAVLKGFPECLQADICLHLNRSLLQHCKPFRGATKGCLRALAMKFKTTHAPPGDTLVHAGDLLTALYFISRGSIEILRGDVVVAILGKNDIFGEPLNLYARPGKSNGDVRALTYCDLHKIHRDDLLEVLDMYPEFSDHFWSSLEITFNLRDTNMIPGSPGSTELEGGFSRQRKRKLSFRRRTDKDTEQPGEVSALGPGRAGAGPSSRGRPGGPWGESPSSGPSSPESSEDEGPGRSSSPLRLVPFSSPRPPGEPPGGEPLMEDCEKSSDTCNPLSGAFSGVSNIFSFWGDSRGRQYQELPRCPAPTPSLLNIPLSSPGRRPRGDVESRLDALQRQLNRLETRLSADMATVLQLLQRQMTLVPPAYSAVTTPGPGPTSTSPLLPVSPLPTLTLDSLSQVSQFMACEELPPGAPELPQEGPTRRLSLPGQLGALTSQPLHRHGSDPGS

[39] = tested on: BaF3; assay: Antiproliferative activity against mouse BaF3 cells transfected with ETV6-wild type TRKA assessed as cell viability incubated for 72 hrs by CCK8 assay; format: functional, cell-based; conditions: BaF3, 72 h
[40] = target: Serine/threonine-protein kinase DCLK2 (Homo sapiens) (UniProt Q8N568); assay: Inhibition of DCK2 (unknown origin) at 1 uM relative to control
Chain of Serine/threonine-protein kinase DCLK2 (Homo sapiens) (Q8N568 whole entry): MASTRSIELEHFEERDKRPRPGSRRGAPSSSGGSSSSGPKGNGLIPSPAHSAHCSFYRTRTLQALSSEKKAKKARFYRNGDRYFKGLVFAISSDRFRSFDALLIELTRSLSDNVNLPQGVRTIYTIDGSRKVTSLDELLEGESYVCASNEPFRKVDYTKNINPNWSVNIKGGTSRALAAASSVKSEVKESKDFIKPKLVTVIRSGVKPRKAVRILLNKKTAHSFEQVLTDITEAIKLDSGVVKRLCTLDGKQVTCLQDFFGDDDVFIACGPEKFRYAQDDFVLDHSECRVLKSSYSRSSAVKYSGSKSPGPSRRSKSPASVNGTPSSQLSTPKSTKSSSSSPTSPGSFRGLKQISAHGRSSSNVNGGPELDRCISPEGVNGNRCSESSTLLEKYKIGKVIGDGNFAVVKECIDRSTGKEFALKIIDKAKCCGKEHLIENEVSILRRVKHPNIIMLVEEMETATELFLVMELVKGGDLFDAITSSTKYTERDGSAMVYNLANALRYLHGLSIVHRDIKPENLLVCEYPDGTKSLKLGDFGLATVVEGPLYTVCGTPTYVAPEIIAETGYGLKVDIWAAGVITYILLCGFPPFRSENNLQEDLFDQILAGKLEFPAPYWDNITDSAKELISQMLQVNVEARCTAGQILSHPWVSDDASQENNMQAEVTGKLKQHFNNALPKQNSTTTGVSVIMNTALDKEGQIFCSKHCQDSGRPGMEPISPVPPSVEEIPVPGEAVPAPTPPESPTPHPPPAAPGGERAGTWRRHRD

[41] = target: ALK tyrosine kinase receptor (Homo sapiens) (UniProt Q9UM73); assay: Inhibition of ALK (unknown origin) at 1 uM relative to control
[42] = Volume of distribution in Sprague-Dawley rat 1 mg/kg, iv measured upto 24 hrs by LC-MS/MS analysis; format: ADME, organism-based; conditions: in vivo, read-out: Vz

Chain of Serine/threonine-protein kinase PLK1 (Homo sapiens) (P53350 whole entry): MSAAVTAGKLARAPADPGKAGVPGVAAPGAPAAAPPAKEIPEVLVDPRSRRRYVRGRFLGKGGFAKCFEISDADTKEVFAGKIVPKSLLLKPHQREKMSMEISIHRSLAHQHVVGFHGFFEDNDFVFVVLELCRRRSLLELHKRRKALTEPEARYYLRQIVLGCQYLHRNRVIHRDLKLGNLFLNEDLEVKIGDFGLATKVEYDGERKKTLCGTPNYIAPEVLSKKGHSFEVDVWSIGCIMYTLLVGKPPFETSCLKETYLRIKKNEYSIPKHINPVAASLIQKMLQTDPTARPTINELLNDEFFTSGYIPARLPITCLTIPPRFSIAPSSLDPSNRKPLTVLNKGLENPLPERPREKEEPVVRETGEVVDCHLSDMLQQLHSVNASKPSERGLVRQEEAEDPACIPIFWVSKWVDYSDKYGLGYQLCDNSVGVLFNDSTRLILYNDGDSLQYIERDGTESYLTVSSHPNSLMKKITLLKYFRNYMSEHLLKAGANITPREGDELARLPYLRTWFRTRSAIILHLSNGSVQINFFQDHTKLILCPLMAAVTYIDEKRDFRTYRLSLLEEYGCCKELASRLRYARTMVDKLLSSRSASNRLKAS

C[C@@H](Nc1ccn2ncc(-c3cnn(CCO)c3)c2n1)c1cc(F)ccc1OCC(F)F
inhibition [1]: < 50%
CL/F [2]: 9.17 mL/min/kg
inhibition [3]: < 50%
IC50 [4]: 10.9 nM
inhibition in vivo at 30 mg/kg [5]: 88%
inhibition [6]: > 80%
Activity [7]: Non-Toxic
inhibition in vivo at 15 mg/kg [8]: 85%
clearance [9]: 7.83 mL/min/kg
inhibition [10]: < 50%
Activity [11]: Non-Toxic
inhibition in vivo at 5 mg/kg [12]: 64%
inhibition [13]: > 80%
inhibition [14]: < 50%
half-life [15]: 6.28 h
Activity [16]: Non-Toxic
inhibition [17]: > 80%
AUC(0-inf) [18]: 213 ng·h/mL
Tmax [19]: 0.83 h
inhibition [20]: > 80%
Vz [21]: 4.77 L/kg
Cmax [22]: 1500 ng/mL
inhibition [23]: > 80%
IC50 [24]: 0.2 nM
clearance [25]: 83.3 mL/min/kg
inhibition [26]: < 50%
IC50 [27]: > 10000 nM
half-life [28]: 7.2 h
inhibition [29]: < 50%
inhibition [30]: < 50%
inhibition [31]: < 50%
inhibition [32]: > 80%
inhibition [33]: < 50%
half-life at 1 µM [34]: 5.25 h
IC50 [35]: 0.7 nM
inhibition [36]: < 50%
inhibition [37]: < 50%
inhibition at 10 µM [38]: 23%
IC50 [39]: 0.2 nM
inhibition [40]: < 50%
inhibition [41]: > 80%
Vd [42]: 40 L/kg
